Results as given in publication PMC6315541, “Nile Tilapia Derived Antimicrobial Peptide TP4 Exerts Antineoplastic Activity Through Microtubule Disruption” (Marine Drugs, 2018).
Entries after “also recorded” stand apart in the source; their conditions may differ.

How the values were obtained:
A549 cells = experiment: Cell viability (CellTiter-Glo ATP assay) in A549 cells; assay type: cell-based, human; conditions: 24 h; for relative ATP levels (cell viability): CellTiter-Glo ATP assay, luminescence, mean ± SD of three independent assays, n ≥ 5 wells per dose; for cytotoxicity to A549 cells (in words): doses 3.35-20.12 µM, ATP assay, Figure 6A
Procedure: (§1) Figure 6 Loss of cancer-killing ability in TP4 mutants. (A) Cell viability in A549 cells was determined by the adenosine triphosphate (ATP) assay following treatment with varying doses of TP4 and TP4 mutants for 24 h. Multiple wells were analyzed for each assay. Results represent the mean ± SD. Statistical comparisons between groups were performed using two-way ANOVA: a, not significant; b, p < 0.05; d, p < 0.001. Statistical analyses are shown in Supplementary Table S1. (B) Cells were stained for TP4 (WT panel), FITC (MT-1 to MT-6 panels), α-Tubulin, and F-actin. Hoechst33342 was used for nuclei staining. Boxed regions are magnified in the furthest right panels. […] Bar: 20 μm.
The A549 cell line (Bioresource Collection and Research Center (BCRC) 60074) was purchased from the BCRC and cultured according to BCRC recommendations. For the cell viability and transfection assay, 4–5 × 10^3 cells were seeded into the wells of a 96-well plate and cultured overnight. Cells were then treated according to the indicated doses and times. Cell viability was quantified using the CellTiter-Glo® Luminescent Cell Viability Assay kit (ATP assay) (Madison, WI, USA) as previously described. The luminescent signal was measured using a photometer (SpectraMax® i3, Molecular Devices, Wals, Austria).
For the multi-well based assay, cells were plated at least in quadruplicate. Data were collected from independently repeated experiments (N ≥ 3) and were analyzed by Prism5 software (GraphPad Inc., La Jolla, CA, USA). Statistical significance was determined by a two-tailed Student’s t-test or one-way/two-way analysis of variance (ANOVA) with a Bonferroni post hoc test. Differences were considered statistically significant at p < 0.05. […]
Supplementary Table S1. Cellular toxicit y of TP 4 to A549 cells was evaluated b y cell viability. Results of statis tical tests on data in Figu re 6A are shown. Multiple wells were anal yzed for each ex periment (n ≥ 5 wells per do se). Results represent the mean ± SD from three independent assays. Statistical comparisons between mock versus TP4 treatment groups were performed using two -way ANOVA anal ysis with Bonferroni post-hoc test: a, not signi ficant; b, P < 0.05; c, P < 0.01; d, P < 0.001. […]
(A-G) Th e helical projection plot and s tructural model o f TP4 (A) and TP4 variants (MT-1 to MT-6, B-G ). The helical proj ecti on was produced b y an online helical wheel projection program (http://rzlab.ucr.edu/scripts/wheel/wheel.cgi). Amino acid residues are numbered and each amino acid is connected with lines to indicate its relative position along the helix. The hydrophobic residues are shown as diamonds ; h ydrophilic residues are circles. Residues with negative charge are shown as trian gles and positively charged residues are pentagons. Hydrophobicity is color coded. The

[1] = tested on: microtubule network (α-Tubulin) in A549 cells; experiment: Immunocytochemistry of microtubule network and peptide uptake in A549 cells; assay type: cell-based, human; conditions: A549 cells; TP4 6.71 μM, 3 h; FITC-labeled mutants; Figure 6B
Procedure: To examine whether TP4 may affect microtubule dynamics, A549 cells were treated with TP4, and cytoskeletal elements were analyzed by immunocytochemistry (ICC). […] We then asked whether TP4 treatment may influence tubulin protein levels by performing Western blots on lysates from A549 cells that had been treated with vehicle or TP4. […] We next conducted a microtubule regrowth assay to further address whether TP4 may disrupt microtubule polymerization. TP4 was applied to A549 cells that had been treated with or without Nocodazole (20 μM) treatment for 6 h, which completely depolymerizes the microtubule network. The repolymerization of microtubules was then initialized by the addition of fresh recovery medium, and regrowth was analyzed by ICC.
While the reduced toxicity may result from impaired binding to tubulin, it is also possible that such effects may be caused by conformational changes in the TP4 mutants, see Supplementary Figure S1C,D, which prevent intracellular penetration. To test this possibility, ICC was conducted to evaluate the cellular localization and the effects on microtubules. […] For both Gly and Ala substitution mutants, FITC-labeled TP4 mutants were able to be taken up intracellularly, see Figure 6B, panels MT-1 to MT-6. However, the microtubule network was only affected in MT-1- and MT-4-treated cells and not the other mutant-treated groups, as shown in Figure 6B.
as §1
Cells were stained with TP4 (1:1000), FITC (1:500, ThermoFisher Scientific, clone 1F8-1E4), α-Tubulin (1:500), and appropriate Alexa Flour conjugated secondary antibody (1:500; ThermoFisher Scientific, Eugene, OR, USA). Hochest33342 was used for nuclear staining, and Alexa Fluor 647-conjugated phalloidin (1:200, Thermo Fisher Scientific, Eugene, OR, USA) was used to stain F-actin. For the confocal microscopic analysis, samples were mounted with fluorescent mounting medium (ProLong Gold Antifade Reagent, ThermoFisher Scientific, Eugene, OR, USA) and images were obtained with a FV3000 laser-scanning confocal microscope (Olympus), using a 60 × objective lens (Plapon 60 × OSC2, N.A. 1.4, oil) with the 4′,6-diamidino-2-phenylindole (DAPI) ([…]), green fluorescent protein (GFP) (EX 470, EM 525 for enhanced GFP (EGFP)), and Cy5 ([…]) emission filters. FV31S software (Olympus, Tokyo, Japan) was used for image acquisition.

| Substance | relative ATP levels (cell viability) (A549 cells; 3.35 µM) | relative ATP levels (cell viability) (A549 cells; 5.03 µM) | relative ATP levels (cell viability) (A549 cells; 6.71 µM) | relative ATP levels (cell viability) (A549 cells; 20.12 µM) | cytotoxicity to A549 cells (in words) (A549 cells) | effect on microtubule network (α-Tubulin ICC) [1] |
| --- | --- | --- | --- | --- | --- | --- |
| MT-1: TP4 mutant, Phe1 to Gly (GIHHIIGGLFSAGKAIHRLIRRRRR) | 0.931±0.160 | 1.044±0.280 | 0.852 ± 0.145 | 0.003±0.001 | decreased cytotoxicity | affected; also recorded: microtubule abnormalities were observed |
| MT-4: TP4 mutant, Phe1 to Ala (AIHHIIGGLFSAGKAIHRLIRRRRR) | 0.454±0.169 | 0.241±0.094 | 0.070±0.045 | 0.001±0.007 | strongly cytotoxic | affected; also recorded: microtubule abnormalities were observed |
